According to patent US20240361324A1, “POINT OF SERVICE METHOD OF DETECTING, DIAGNOSING AND FOLLOWING CANCER AND OTHER PROLIFERATIVE CONDITIONS” (priority 2021, published 2024):
“Also recorded” adds a separate entry of the source.

Experiments:
Type in all cases: cell-based, human
[1] = test system: p80; assay: SDS-PAGE/Western blot of p80 in BIX3 OVCA cells after EGF treatment; conditions: per mg protein or DNA basis, compared to untreated control
Protocol: FIG. 10. SDS-PAGE/Western blot analysis of p80 in BIX3 OVCA cells following treatment with EGF, (see text). The lanes are as follows: (a) protein standards, (b) control-untreated, (c) EGF-treated. The density of p80 expression was increased after EGF treatment. Actin was detected as loading control.
Stimulation of expression of p80 by epidermal growth factor (EGF). […] To further test the relationship between p80 and OVCA proliferation, OVCA cells were treated with EGF and measured proliferation (MTT assay) and the expression of p80 (Western Blotting). Again, results were calculated on a per mg protein or DNA basis to avoid confounding. Findings: (1) Increasing doses of EGF (10-50 ng/ml) stimulated OVCA proliferation in comparison to untreated controls (data not shown). […] (2) E-M/ECC's and their roles as specific antimicrotubular agents will be tested. Alternative approaches, such as targeting this molecule by using antisense DNA/RNA to block its expression could be helpful in elucidating whether the expression of this protein is a cause or an effect of OVCA proliferation. Furthermore, the antisense approach may also lead to the development of a novel modality for OVCA therapy targeting p80.

[2] = test system: OVCA cell lines; assay: MTT assay of OVCA cell proliferation; conditions: data not shown; for cell proliferation (MTT assay): all the cell lines, same doses as the p80 experiment
Protocol: (§1) Rationale and Experiments: In order to assess the effects of various classes of chemotherapy on p80-containing OVCA cells and to elucidate the relationship between p80, EM, and OVCA proliferation, EM or tamoxifen or the NADPH-oxidase inhibitor diphenyleneiodonium treatment was carried out. […] The treatment was followed with Western blotting to determine the effect of each agent on p80 expression. To control for reduced cell numbers or changes in cell volume as confounding factors, results were calculated on the basis of p80 per mg protein or DNA in the cells.
To further test the relationship between p80 and OVCA proliferation, OVCA cells were treated with EGF and measured proliferation (MTT assay) and the expression of p80 (Western Blotting). Again, results were calculated on a per mg protein or DNA basis to avoid confounding. […] (2) E-M/ECC's and their roles as specific antimicrotubular agents will be tested.

[3] = test system: OVCA cell lines; assay: Flow cytometry of the cell cycle distribution of OVCA; conditions: all OVCA cell lines; 24 hours treatment; 1-100 μgm/ml; compared to control DMSO-treated cells
From the text: Effect of EM on the cell cycle of OVCA. Rationale: Since EM's antiproliferative activity could be due to the disruption of mitosis and other crucial microtubule-dependent cellular functions, flow cytometry was used to investigate the effect of EM on the cell cycle distribution of OVCA. Experiments: Following EM administration (1-100/ μgm/ml) the flasks were trypsinized and all cells subjected to flow cytometry in the Yale Cancer Center Core laboratory. […] Conclusions: (1) EM induced cell cycle synchronization at G2/M. This was consistent with an action on OVCA microtubule associated proteins (MAP's). (2) Synchronization in G2/M raised the possibility of radio-sensitization (Barnes WM. PCR amplification of up to 35-Kb DNA with high fidelity and high yield from lambda bacteriophage templates. Proc Natl Acad Sci USA March 15; 91 (6): 2216-20, 1994; Mandelkow E, Mandelkow E-M. Microtubules and microtubule-associated proteins. Current Opinion in Cell Biology 7:72-81, 1995.

[4] = test system: OVCA cell lines; assay: 3H-thymidine uptake in cultured OVCA cells; conditions: all OVCA cell lines; 1-100 μg/ml
From the text: Culture of OVCA cell lines and cell cultures. Rationale: In order to determine the efficacy of inhibiting human OVCA cells with drugs, four extensively characterized OVCA cell lines, three in-house lines, DK2NMA, BIXLER, BIX3 (all courtesy of Drs. S. Chambers and B. Kacinski), (Peter B. Kaufman, William, Wu, Donghern Kim, Leland J. Cseke. Molecular Biology and Medicine. CRC Press inc., Boca Raton, Florida Chapter 12:289-304, 1995) and SKOV3, obtained from American Type Culture Collection, were established in mono-layer culture. Experiments: In preparation for drug treatment, cell suspensions were thor-oughly dispersed, precisely counted and then seeded into another flask at the desired cell den-sity. Conclusion: The cell lines were established, and test drugs shown to predictably affect the cells. Results were produced that meet stringent reliability criteria, including precision i.e., small variability between replicates.
Inhibition of OVCA cell proliferation by EM (estrogen mustard). Rationale: Clini-cally, EM has modest systemic toxicity and has been partially effective in the treatment of advanced prostatic carcinoma. […] Therefore, the effect of EM on OVCA cells was studied. Experiments: 3H-thymidine uptake was used to test the effect of EM against cultured OVCA cells in a wide range of concentrations (1-100 μg/ml). […]

[5] = test system: p80; assay: Western analysis of p80 expression in drug-treated SKOV3 cells; conditions: for expression of p80 (Western blotting): OVCA cells, calculated as p80 per mg protein or DNA; for expression of p80 (Western analysis): SKOV3, 24-hour treatment, compared to control DMSO-treated cells
Protocol: FIG. 9. […] Rat brain extract was used as a positive control (lane e). MW=Molecular weight markers (High Range SDS-PAGE standard). Actin was detected as loading control.
Western Blot Analysis: The cell monolayer was lysed with lysis buffer containing six protease inhibitors (Protease Cocktail; Roche), incubated on ice for 10 min, and scraped with a rubber policeman. Cell lysate was collected and centrifuged at 12,000× g for 30 min. Supernatants were saved for SDS-PAGE and Western blot analysis, and pellets were extracted by SDS-PAGE sample buffer (minus reducing reagent). The total amount of protein in each extract was determined by the bicinchoninic acid (BCA) method. SDS-PAGE was performed, loading the same amount of total protein in the same volume into each sample well, using commercially available precast 4-15% gradient SDS-polyacrylamide gels (Bio Rad). High range SDS-PAGE standard (Bio Rad) was run as a standard. After electrophoresis, proteins were transferred onto a PVDF membrane. After transfer, the membrane was incubated with primary antibody, then washed, and incubated with peroxidase-labeled second antibody. Signals were visualized on Hyperfilm-ECL by the ECL-reagents (Amersham).
SDS-PAGE and Western Blot Analysis: The cell monolayer was lysed with lysis buffer containing 6 protease inhibitors (Boehringer-Mannheim). Cell lysate was collected by centrifugation after the supernatants were saved. The pellet was extracted by boiling with SDS-containing buffer. The total amount of protein in each extract was determined. SDS-PAGE was performed by loading the same amount of total protein into each sample well. After electrophoresis, proteins were electro-transferred onto a PVDF membrane. Then, the membrane was incubated with primary antibody, washed, and incubated with peroxidase conjugated horse anti-mouse IgG (H+L). Signals were developed with an enhanced luminescence reagent (ECL, Amersham) and visualized on Hyper ECL-Film. (Amersham). Signal density was measured and analyzed by a densitometer. Western analysis can furnish information on immunoreactivity and molecular size; therefore, this technique was often used for the first-line screening of the presence of p80. However, if there was any ambiguity about the cross-reactivity, the results were double checked with Northern blotting or RT-PCR with specific primers.
as §1

[6] = test system: p80; assay: Immunofluorescence staining of p80 in PMA-treated THP-1 cells; conditions: 10 ng/ml, 5 days
Protocol: (§2) FIG. 11. (Top): Light microscopy of THP-1 cells after treatment of PMA. A. untreated THP-1 cells; B. THP-1 cells treated with 10 ng for five days. (Middle): Western blotting analysis of p80 in PMA-treated THP-1 cells. M: protein markers, Lane 1. SKOV3 (OVCA) as p80 positive control, Lane 2. Untreated THP-1 cells, supernatant from the cell lysate. Lane 3. Untreated THP-1 cell, pellet from the cell lysate. Lane 4. 5 day-PMA (10 ng/ml) treated THP-1 cells, supernatant from the cell lysate. Lane 5:5 day-PMA (10ng/ml) treated THP-1 cells, pellet from the cell lysate. Lane 6: human brain protein extract as 350 kDa MAP1a control. Lanes 7-12 are duplications of Lane 1-7. Note: Before PMA treatment there is a thick 80 kDa band in Lane 2; after 5 days of PMA treatment, the 80 kDa band became undetectable. (Bottom): IF straining of THP-1 cells after 5 days treatment with PMA. A. Untreated THP-1 cells; B. PMA (10 ng/ml) treated THP-1 cells.
(§3) Terminal Differentiation of THP-1 leukemia cells was associated with decreased expression of p80. […] The slide was studied by a fluorescence microscope for the presence of the P80 and photographed. […] Before treatment with PMA, the cells were round with bright fluorescence (FIG. 11-a Bottom); after PMA treatment, the cells grew processes with no IF of P80 (FIG. 11b Bottom). […]

[7] = test system: THP-1 promonocytic leukemia cell line; assay: Cell morphology/differentiation of THP-1 leukemia cells after PMA; conditions: THP-1 cells; 10 ng/ml
Protocol: as §2, §3

[8] = test system: p80; assay: Western blotting of p80 in PMA-treated THP-1 cells; conditions: 10 ng/ml, 5 days
Protocol: as §2, §3

Molecule | cell proliferation (MTT assay) [2] | expression of p80 (Western blotting) [5] | expression of p80 (Western analysis) ([5]; 10 μM) | other results
epidermal growth factor (NSDSECPLSHDGYCLHDGVCMYIEALDKYACNCVVGYIGERCQYRDLKWWELR; Epidermal growth factor; UniProt P01133 971-1023, looked up) [EGF, growth factor; ovarian cancer cells have EGF receptors] | – | – | – | expression of p80 (Western blotting) [1]: increased significantly; OVCA proliferation (MTT assay) ([2]; 10-50 ng/ml, increasing doses, compared to untreated controls): stimulated
C[C@]12CC[C@@H]3c4ccc(OC(=O)N(CCCl)CCCl)cc4CC[C@H]3[C@@H]1CC[C@@H]2O [EM, estrogen mustard] | significantly decreased | significantly inhibited | significant decreases | percentages of cells in G2/M phase [3]: significant increase; 3H-thymidine incorporation [4]: marked, dose-dependent inhibition
CC/C(=C(\c1ccccc1)c1ccc(OCCN(C)C)cc1)c1ccccc1 [TMX, tamoxifen] | significantly decreased | significantly inhibited | – | expression of p80 (Western analysis) ([5]; 100 μM): significant decreases
CCCCCCCCCCCCCC(=O)O[C@@H]1[C@@H](C)[C@@]2(O)[C@@H](C=C(CO)C[C@]3(O)C(=O)C(C)=C[C@@H]23)[C@@H]2C(C)(C)[C@]12OC(C)=O [PMA, phorbol myristic acetate] | – | – | – | immunofluorescence (IF) of p80 [6]: no IF of P80; differentiation / cell morphology [7]: began to differentiate to monocytes/macrophages; p80 (80 kDa band) on Western blots [8]: disappeared; also recorded: undetectable
c1ccc2c(c1)[I+]c1ccccc1-2 [DPI, diphenyleneiodonium] | significantly decreased | significantly inhibited | significant decreases | –
